{"source": "patent US20060258617A1", "about": "“DRUG DELIVERY TO THE BACK OF THE EYE” (Allergan, Inc., priority 2004, published 2006)", "test": "Osmolality of cyclodextrins as a function of concentration in pure water", "type": "physicochemical", "conditions": "ambient room temperature, various concentrations (FIG. 5)", "protocol": "The osmolality of four cyclodextrins was determined as a function of concentration in pure water by the following procedure. Various amounts of cyclodextrins were dissolved in water at ambient room temperature."}
{"substance": "sulfobutylether-β-cyclodextrin [NaSBECD]", "values": [{"measurement": "osmolality", "value": "significantly higher osmolality than the other β-cyclodextrins tested"}]}
